Measurements published in patent US20240059688A1, “CONOLIDINE ANALOGUES AS SELECTIVE ACKR3 MODULATORS FOR THE TREATMENT OF CANCER” (Luxembourg Institute of Health (LIH), priority 2020, published 2024).

Assays:
[1] = target: ACKR3 (Homo sapiens, UniProt P25106); test: ACKR3 β-arrestin recruitment assay (PathHunter, β-galactosidase complementation); type: cell-based; conditions: for Emax: read-out: ACKR3 β-arrestin % CXCL12 Emax ± SEM; for EC50: stable human ACKR3-β-arrestin-2-CHO cells, mean ± SEM, at least two independent experiments in duplicate
ACKR3, sequence (P25106 whole entry): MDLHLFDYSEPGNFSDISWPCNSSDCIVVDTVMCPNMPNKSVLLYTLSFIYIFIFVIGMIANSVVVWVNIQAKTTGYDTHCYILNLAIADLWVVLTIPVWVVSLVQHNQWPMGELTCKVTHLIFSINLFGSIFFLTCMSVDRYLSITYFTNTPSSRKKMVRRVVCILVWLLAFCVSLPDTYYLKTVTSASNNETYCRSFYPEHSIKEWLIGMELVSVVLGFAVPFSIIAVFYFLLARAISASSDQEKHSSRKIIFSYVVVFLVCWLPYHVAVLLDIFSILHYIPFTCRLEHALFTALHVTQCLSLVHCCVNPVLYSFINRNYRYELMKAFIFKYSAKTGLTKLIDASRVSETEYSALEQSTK
Procedure: (§1) Compounds were evaluated for agonist activity using a β-arrestin recruitment assay based on β-galactosidase complementation (PathHunter, DiscoverX). Stable human ACKR3-β-arrestin-2-CHO cells (DiscoverX) were plated into 96-well white-walled assay plates at 15,000 cells/well in Cell Plating Reagent 2 (DiscoveRx) and incubated at 37° C., 5% CO2 overnight. The next day, test compounds were prepared at 10× concentration in DPBS/1% DMSO and 10 μL was added to the cells. CXCL-12 was included as a positive agonist control. Following a 1.5 hr incubation at 37° C., 55 μL of detection reagent (prepared according to the manufacturer's specifications) was added to each well. The plate was incubated at room temperature for 1 hr, after which luminescence was measured at 1 sec/well using an EnSpire multimode plate reader (PerkinElmer). Relative luminescence units (RLU) were plotted against the log of compound concentration and data were fit to a three-parameter logistic curve to generate EC50 values (GraphPad Prism). EC50 and % Emax values are reported as means±SEM and are the result of at least two independent experiments performed in duplicate. The CXCR4 assay was run similarly except that human CXCR4-C2Cl2 cells (DiscoverX) were plated at 20,000 cells/well in Cell Plating Reagent 9. The next day, the media was removed and cells were incubated with Cell Plating Reagent 4 for 3 hrs, after which the assay was conducted as described above.

[2] = target: T1, human CXCR4 (Homo sapiens, UniProt P61073); test: CXCR4 β-arrestin recruitment assay (PathHunter); type: cell-based; conditions: human CXCR4-C2Cl2 cells, relative to CXCL-12
T1 construct: host or cells: C2C12
T1 sequence (P61073 whole entry): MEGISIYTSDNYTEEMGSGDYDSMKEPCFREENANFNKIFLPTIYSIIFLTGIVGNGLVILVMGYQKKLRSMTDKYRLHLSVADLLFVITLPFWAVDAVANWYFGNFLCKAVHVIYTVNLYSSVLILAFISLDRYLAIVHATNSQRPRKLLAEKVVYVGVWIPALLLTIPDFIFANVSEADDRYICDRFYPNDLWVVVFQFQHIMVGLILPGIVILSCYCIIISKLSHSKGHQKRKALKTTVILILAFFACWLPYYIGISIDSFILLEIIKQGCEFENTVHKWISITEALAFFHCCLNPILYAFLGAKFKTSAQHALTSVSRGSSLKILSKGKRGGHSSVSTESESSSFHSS
Procedure: as §1

Compound: C/C=C1/CN(Cc2ccc(OC)cc2)CC[C@H]1C(O)c1cc2ccccc2n1S(=O)(=O)c1ccccc1 (stereo partly drawn) [WW-61, [(3E,4R)-3-ethylidene-1-(4-methoxybenzyl)piperidin-4-yl][1-(phenylsulfonyl)-1H-indol-2-yl]methanol]
- Emax [1]: 156 ± 7%
- EC50 [1]: 0.527 ± 0.13 µM
- CXCR4 β-arrestin % CXCL-12Emax (n = 2) [2]: 10%

Compound: C/C=C1/CN(CCCCC)CC[C@H]1C(O)c1cc2ccccc2n1S(=O)(=O)c1ccccc1 (some centres unmarked) [WW-74]
- Emax [1]: 172 ± 6%
- EC50 [1]: 0.177 ± 0.01 µM
- CXCR4 β-arrestin % CXCL-12Emax (n = 2) [2]: 3%

Compound: C/C=C1/CN(CCCCN)CC[C@H]1C(=O)c1cc2ccccc2[nH]1 [WW-58, (3E,4R)-(3-ethylidene-1-(4-aminobutyl)piperidin-4-yl)(1H-indol-2-yl)methanone]
- EC50 [1]: > 10 µM
- CXCR4 β-arrestin % CXCL-12Emax (n = 2) [2]: 3%

Compound: C/C=C1/CN(Cc2ccc(OC)cc2)CC[C@H]1C(O)c1cc2cc(C#N)ccc2n1S(=O)(=O)c1ccccc1 (some centres unmarked) [WW-70, 2-{[(3E, 4R)-(3-ethylidene-1-(4-methoxybenzyl)piperidin-4-yl)](hydroxy)methyl}-1-(phenylsulfonyl)-1H-indole-5-carbonitrile]
- EC50 [1]: > 10 µM
- CXCR4 β-arrestin % CXCL-12Emax (n = 2) [2]: −2%

Compound: NC1CN(C(=O)c2cc3ccccc3[nH]2)C1 [WW-31, 1-(1H-indole-2-ylcarbonyl)azetidin-3-amine]
- EC50 [1]: > 10 µM
- CXCR4 β-arrestin % CXCL-12Emax (n = 2) [2]: 7%

Compound: C/C=C1/CN(CCCCC)CC[C@H]1C(=O)c1cc2ccc(F)cc2[nH]1 [WW-55, [(3E,4R)-3-ethylidene-1-pentylpiperidin-4-yl](6-fluoro-1H-indol-2-yl)methanone]
- Emax [1]: 90 ± 1%
- EC50 [1]: 5 ± 0.6 µM
- CXCR4 β-arrestin % CXCL-12Emax (n = 2) [2]: 10%

Compound: C/C=C1/CN(CCCCC)CC[C@H]1C(=O)c1cc2cc(Cl)ccc2[nH]1 [WW-54, (5-chloro-1H-indol-2-yl)[(3E,4R)-3-ethylidene-1-pentylpiperidin-4-yl]methanone]
- Emax [1]: 129 ± 4%
- EC50 [1]: 1.96 ± 0.027 µM
- CXCR4 β-arrestin % CXCL-12Emax (n = 2) [2]: 15%

Compound: C/C=C1/CN(CCCCOc2ccccc2)CC[C@H]1C(=O)c1cc2ccccc2[nH]1 [WW-72, (3E,4R)-(3-ethylidene-1-(4-phenoxybutyl)piperidin-4-yl)(1H-indol-2-yl)methanone]
- Emax [1]: 145 ± 16%
- EC50 [1]: 3.78 ± 0.98 µM
- CXCR4 β-arrestin % CXCL-12Emax (n = 2) [2]: 4%

Compound: CCCCCN1CC[C@H](NC(=O)c2cc3ccccc3[nH]2)C1 [WW-29, N-[(3S)-1-pentylpyrrolidin-3-yl]-1H-indole-2-carboxamide]
- Emax [1]: 145 ± 4%
- EC50 [1]: 1.92 ± 0.056 µM
- CXCR4 β-arrestin % CXCL-12Emax (n = 2) [2]: 15%

Compound: O=C(c1cc2ccccc2[nH]1)N1CCNCC12CC2 [WW-22, 2-(4,7-diazaspiro[2.5]oct-4-ylcarbonyl)-1H-indole]
- EC50 [1]: > 10 µM
- CXCR4 β-arrestin % CXCL-12Emax (n = 2) [2]: 4%

Compound: CCCCCNC1CN(C(=O)c2cc3ccccc3[nH]2)C1 [WW-32, 1-(1H-indole-2-ylcarbonyl)-N-pentylazetidin-3-amine]
- EC50 [1]: > 10 µM
- CXCR4 β-arrestin % CXCL-12Emax (n = 2) [2]: 9%

Compound: C/C=C1/CN(CC2CCCCC2)CC[C@H]1C(=O)c1cc2ccccc2[nH]1 [WW-68, [(3E,4R)-1-(cyclohexylmethyl)-3-ethylidenepiperidin-4-yl](1H-indol-2-yl)methanone]
- Emax [1]: 136 ± 3%
- EC50 [1]: 3.61 ± 0.39 µM
- CXCR4 β-arrestin % CXCL-12Emax (n = 2) [2]: 8%

Compound: CCCCCN1CCC(C)(C(=O)c2cc3ccccc3[nH]2)CC1 [WW-57, 1H-Indole-2-yl(4-methyl-1-pentylpiperidin-4-yl)methanone]
- Emax [1]: 96 ± 4%
- EC50 [1]: 6.45 ± 0.72 µM
- CXCR4 β-arrestin % CXCL-12Emax (n = 2) [2]: 5%

Compound: CCOC(=O)C(c1[nH]c2ccccc2c1C=O)C1CCN(S(=O)(=O)c2ccc(C)cc2)C/C1=N\O[Si](C)(C)C(C)(C)C (centres unmarked) [WW-64]
- EC50 [1]: > 10 µM
- CXCR4 β-arrestin % CXCL-12Emax (n = 2) [2]: 16%

Compound: CCCCCN1CCC(C(=O)c2cc3ccccc3n2CCCCC)CC1 [WW-20]
- Emax [1]: 154 ± 7%
- EC50 [1]: 1.77 ± 0.078 µM
- CXCR4 β-arrestin % CXCL-12Emax (n = 2) [2]: 11%

Compound: CCCCCN1CCN(C(=O)c2cc3ccccc3[nH]2)C(CC)C1 (centres unmarked) [WW-25, 2-[(2-ethyl-4-pentylpiperazin-1-yl)carbonyl]-1H-indole]
- EC50 [1]: > 10 µM
- CXCR4 β-arrestin % CXCL-12Emax (n = 2) [2]: 4%

Compound: O=C(N[C@H]1CCN(c2nccn3cccc23)C1)c1cc2ccccc2[nH]1 [WW-33, N-[(3S)-1-pyrrolo[1,2-a]pyrazin-1-ylpyrrolidin-3-yl]-1H-indole-2-carboxamide]
- Emax [1]: 150 ± 3%
- EC50 [1]: 0.377 ± 0.009 µM
- CXCR4 β-arrestin % CXCL-12Emax (n = 2) [2]: 6%

Compound: CCCCCN1CC[C@H](NC(=O)c2cc3ccc(-c4ccc(OC)cc4)cc3[nH]2)C1 [WW-45, 6-(4-methoxyphenyl)-N-[(3S)-1-pentylpyrrolidin-3-yl]-1H-indole-2-carboxamide]
- EC50 [1]: > 10 µM
- CXCR4 β-arrestin % CXCL-12Emax (n = 2) [2]: 6%

Compound: CC(C)(C)OC(=O)N1CC[C@H](NC(=O)c2cc3ccccc3[nH]2)C1 [WW-26, Tert-butyl (3S)-3-[(1H-indol-2-ylcarbonyl)amino]pyrrolidine-1-carboxylate]
- EC50 [1]: > 10 µM
- CXCR4 β-arrestin % CXCL-12Emax (n = 2) [2]: 9%

Compound: CCCCCN1CC[C@H](NC(=O)c2cc3cccc(-c4ccc(F)cc4)c3[nH]2)C1 [WW-46, 7-(4-Fluorophenyl)-N-[(3S)-1-pentylpyrrolidin-3-yl]-1H-indole-2-carboxamide]
- Emax [1]: 119 ± 8%
- EC50 [1]: 0.504 ± 0.062 µM
- CXCR4 β-arrestin % CXCL-12Emax (n = 2) [2]: 7%

Compound: CCCCCN1CCN(C(=O)c2cc3ccccc3[nH]2)C2(CC2)C1 [WW-23, 2-[(7-pentyl-4,7-diazaspiro[2.5]oct-4-yl)carbonyl]-1H-indole]
- Emax [1]: 156 ± 11%
- EC50 [1]: 3.04 ± 0.13 µM
- CXCR4 β-arrestin % CXCL-12Emax (n = 2) [2]: 11%

Compound: CCCCCN1CC[C@H](NC(=O)c2cc3cc(OC)c(OC)c(OC)c3[nH]2)C1 [WW-43, 5,6,7-Trimethoxy-N-[(3S)-1-pentylpyrrolidin-3-yl]-1H-indole-2-carboxamide]
- EC50 [1]: > 10 µM
- CXCR4 β-arrestin % CXCL-12Emax (n = 2) [2]: 10%

Compound: C/C=C1/CN(CCOCCN)CC[C@H]1C(=O)c1cc2ccccc2[nH]1 [WW-60, (3E,4R)-(3-ethylidene-1-(2-ethoxy-(2-aminoethyl))piperidin-4-yl)(1H-indol-2-yl)methanone]
- EC50 [1]: > 10 µM
- CXCR4 β-arrestin % CXCL-12Emax (n = 2) [2]: 11%

Compound: C/C=C1/CN(CCCC(C)C)CC[C@H]1C(=O)c1cc2ccccc2[nH]1 [WW-63, [(3E,4R)-3-ethylidene-1-(4-methylpentyl)piperidin-4-yl](1H-indol-2-yl)methanone]
- Emax [1]: 152 ± 1%
- EC50 [1]: 1.78 ± 0.16 µM
- CXCR4 β-arrestin % CXCL-12Emax (n = 2) [2]: 15%

Compound: CC(C)(C)OC(=O)N1CCCN(C(=O)c2cc3ccccc3[nH]2)CC1 [WW-27, tert-butyl 4-(1H-indol-2-ylcarbonyl)-1,4-diazepane-1-carboxylate]
- EC50 [1]: > 10 µM
- CXCR4 β-arrestin % CXCL-12Emax (n = 2) [2]: 4%

Compound: C/C=C1/CN(CCCCC)CC[C@H]1C(=O)c1cc2cc(C(C)=O)ccc2n1CCCCC [WW-66, 1-(2-{[(3E,4R)-3-ethylidene-1-pentylpiperidin-4-yl]carbonyl}-1-pentyl-1H-indol-5-yl)ethanone]
- EC50 [1]: > 10 µM
- CXCR4 β-arrestin % CXCL-12Emax (n = 2) [2]: 8%

Compound: C/C=C1/CN(CCCCCC)CC[C@H]1C(=O)c1cc2ccccc2[nH]1 [WW-62, [(3E,4R)-3-ethylidene-1-hexylpiperidin-4-yl](1H-indol-2-yl)methanone]
- Emax [1]: 137 ± 3%
- EC50 [1]: 3.04 ± 0.32 µM
- CXCR4 β-arrestin % CXCL-12Emax (n = 2) [2]: 5%

Compound: CCCCCN1CCCN(C(=O)c2cc3ccccc3[nH]2)CC1 [WW-30, 2-[(4-pentyl-1,4-diazepan-1-yl)carbonyl]-1H-indole]
- EC50 [1]: > 10 µM
- CXCR4 β-arrestin % CXCL-12Emax (n = 2) [2]: 7%

Compound: CCCCCN1CCN(C(=O)c2cc3ccccc3[nH]2)CC1 [WW-28, 2-[(4-pentylpiperazin-1-yl)carbonyl]-1H-indole]
- EC50 [1]: > 10 µM
- CXCR4 β-arrestin % CXCL-12Emax (n = 2) [2]: 11%

Compound: CCCCCN1CCN(C(=O)c2cc3ccccc3n2CCCCC)C2(CC2)C1 [WW-24, 1-pentyl-2-[(7-pentyl-4,7-diazaspiro[2.5]oct-4-yl)carbonyl]-1H-indole]
- Emax [1]: 154 ± 17%
- EC50 [1]: 6.05 ± 0.53 µM
- CXCR4 β-arrestin % CXCL-12Emax (n = 2) [2]: 5%

Compound: CCCCCN1CCC(C(=O)c2cc3ccccc3[nH]2)CC1 [WW-19, 1H-indol-2-yl(1-pentylpiperidin-4-yl)methanone]
- EC50 [1]: > 10 µM
- CXCR4 β-arrestin % CXCL-12Emax (n = 2) [2]: 9%
